Experimental data reported in patent US11236302B2, “Methods and compositions for producing stem cell derived dopaminergic cells for use in treatment of neurodegenerative diseases” (BIOLAMINA AB, priority 2015, dated 2022).

How the values were obtained:
RC17 hESCs = assay: Adherent differentiation of ventral mesencephalon progenitors on full-length laminin subtypes, day 0-11; type: cell-based, human; conditions: for yield of neural cells relative to a standard yield of 100%: laminin as coating, day 0-11 of the protocol
Excerpt: To develop a GMP-compatible differentiation protocol for high and reproducible yield of caudilised mesDA ventral mesencephalon progenitors that would result in good graft outcome, a fully GMP-derived hES cell line RC17 from Roslin cells (hPS Creg #RCe021-A) was used. Previous research grade ventral mesencephalon differentiation protocols have implemented steps of embryoid body (EB) formation or culturing on MATRIGEL®, both of which pose problems in GMP adaptation due to difficulties in reproducibility and the content of undefined animal-derived component, respectively.
Relative to a standard yield of 100%, LN-111 yielded 170%, LN-421 yielded 294%, LN-511 yielded 223%, and LN-521 yielded 208%. RC17 cells were differentiated according to the methods described herein, but on plates that were coated with laminin-121 instead of laminin-111. FIG. 8C compares the yields, and the yields are about equal to each other, i.e. LN-121 works about as well as LN-111 as a substrate.

undifferentiated hESCs = assay: Plating of undifferentiated hESCs on laminin matrix in pluripotency medium or differentiation medium; type: cell-based, human; conditions: laminin as matrix
Procedure: When the same number of cells was plated onto LN-111 in B27 medium, the cultures remained adherent and grew to confluency after 7 days of differentiation while showing rapid downregulation of pluripotency markers.

| Substance | yield of dopaminergic cells on LN-121 compared with LN-111 (RC17 hESCs; RC17 cells, plates coated with laminin-121 instead of laminin-111) | yield of neural cells relative to a standard yield of 100% (RC17 hESCs) | support of growth of pluripotent stem cells versus neural cells (undifferentiated hESCs) |
| --- | --- | --- | --- |
| LN-121: the protein formed by joining α1, β2 and γ1 chains together | about equal |  |  |
| LN-421: the protein formed by joining α4, β2 and γ1 chains together |  | 294% |  |
| LN-111: the protein formed by joining α1, β1 and γ1 chains together |  | 170% | selectively supported the growth of neural cells but not pluripotent stem cells |
| LN-521: the protein formed by joining α5, β2 and γ1 chains together |  | 208% | efficiently support growth of hPSCs |
| LN-511: the protein formed by joining α5, β1 and γ1 chains together |  | 223% | efficiently support growth of hPSCs |
